# Reference: paper PMC9481570, “A small molecule antagonist of SMN disrupts the interaction between SMN and RNAP II” (Nature Communications, 2022)
# How the values were obtained:
# SMN_N132D = molecular target: T1, SMN_N132D (Homo sapiens, UniProt Q16637, N132D); assay: ITC binding to SMN Tudor mutant N132D; details: Fig. 3d
# T1 construct: cloned into pET28-MHL vector: SMN (aa 82–147); His (N, cleaved yes); made in house; host or cells: E. coli BL21 (DE3) Codon plus RIL
# Text: (§1) The coding DNA fragments of following Tudor domains were cloned into pET28-MHL vector: SMN (aa 82–147), UHRF1 (aa 126–285), SMNDC1 (aa 53–130), TDRD3 (aa 554–611), SND1 (aa 650–910), TDRD2 (aa 327–420), FXR1 (aa 2–132), PHF1 (aa 28–87), SGF29 (aa 115–293), JMJD2A (aa 897–1101), 53BP1 (aa 1483–1606), SETDB1 (aa 190–410), LBR (aa 1–67), ZGPAT (aa 120–271). The coding regions of chromodomain of CBX7 (aa 8–62), PWWP domain of DNMT3A (aa 275–417), WD40 repeats of WDR5 (aa 24–334) and CW domain of ZCWPW2 (aa 21–78) were also subcloned into pET28-MHL vector to generate N-terminally His-tagged fusion protein. The MBT repeats of L3MBTL1 (aa 200–522) and L3MBTL2 (aa 170–625) were subcloned into pET28GST-LIC vector to generate N-terminally GST-His-tagged fusion protein. All the plasmids were generated by ligase independent cloning (Vazyme Biotech, C112 or ABclonal Technology, RK21020). […] The molecular weight of all protein samples was measured by mass spectrometry.
# (§2) For the ITC measurement, the concentrated proteins were diluted into 20 mM Tris-HCl, pH 7.5, 150 mM NaCl (ITC buffer); the lyophilized compounds were dissolved in the same buffer, and the pH value was adjusted by adding 2 M NaOH or 2 M HCl. […] Compound concentrations were calculated from the mass and the volume of the solvent. […]
# SMN_Y127A = molecular target: T2, SMN_Y127A (Homo sapiens, UniProt Q16637, Y127A); assay: ITC binding to SMN Tudor mutant Y127A; details: Fig. 3d
# T2 construct: cloned into pET28-MHL vector: SMN (aa 82–147); His (N, cleaved yes); made in house; host or cells: E. coli BL21 (DE3) Codon plus RIL
# T2 sequence (Q16637 82-147 Y127A): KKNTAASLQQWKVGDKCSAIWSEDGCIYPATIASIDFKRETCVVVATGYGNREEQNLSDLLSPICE
# Text: as §1, §2
# FXR1 = molecular target: T3, FXR1 (Homo sapiens, UniProt P51114); assay: ITC binding to FXR1
# T3 construct: FXR1 (aa 2–132); His (N, cleaved yes); made in house; host or cells: E. coli BL21 (DE3) Codon plus RIL
# T3 sequence (P51114 2-132): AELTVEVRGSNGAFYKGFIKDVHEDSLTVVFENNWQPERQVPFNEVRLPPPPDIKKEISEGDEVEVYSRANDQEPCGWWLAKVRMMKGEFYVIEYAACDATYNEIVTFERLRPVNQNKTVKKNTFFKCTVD
# Text: as §1, §2
# TDRD2 = molecular target: T4, TDRD2 (Homo sapiens, UniProt Q9Y2W6); assay: ITC binding to TDRD2; details: Fig. 1c
# T4 construct: TDRD2 (aa 327–420); His (N, cleaved yes); made in house; host or cells: E. coli BL21 (DE3) Codon plus RIL
# T4 sequence (Q9Y2W6 327-420): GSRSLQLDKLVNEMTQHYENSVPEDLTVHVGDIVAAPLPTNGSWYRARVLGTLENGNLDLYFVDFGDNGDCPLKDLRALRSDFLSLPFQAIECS
# Text: as §1, §2
# T1 sequence (Q16637 82-147 N132D): as the sequence (Q16637 82-147 Y127A) above, with A46Y, N51D counted along it
smiles,measurement,setting,value
"Cn1c2c(c(=N)c3c1CCC3)CCC2 [Compound 1, 4-methyl-2,3,4,5,6,7-hexahydrodicyclopenta[b,e]pyridin-8(1H)-imine]",Kd,SMN_N132D,3.3 ± 0.1 µM
same,Kd,SMN_Y127A,> 100 µM
same,Kd,"FXR1; ITC, Fig. 1c",> 100 µM
same,"ITC binding curve, FXR1 (in words)",FXR1; Supplementary Fig. 2e,Weak binding
same,Kd,TDRD2,> 244 µM
